Source: patent US20230346864A1, “Compositions and Methods for Joint Health” (Innophos, LLC, priority 2020, published 2023)

Key:
[1] = test system: collagen-induced arthritis (CIA) model in rats; experiment: CIA rats: paw thickness / paw edema; assay type: in vivo, Sprague—Dawley rats; settings: day 7-day 21; Methotrexate 0.5 mg/kg; vs vehicle treated CIA
From the text: (§1) Collagen induced arthritis (CIA) in rats was developed and utilized to evaluate efficacy of orally administered cashew skin extract for three weeks post disease induction. The study included seven groups of rats (n=9 rats/group). The rats were purpose bred male Sprague—Dawley rats (7-8 weeks old, Charles River Laboratories Inc., Wilmington, MA). Animals were acclimated for two weeks to achieve the required body weight before being assigned randomly to their respective group. Rats (3/cage) were housed in a polypropylene cage and individually identified by numbers on their tail. Individual cages were identified with a cage card indicating project number, test article, dose level, group, and animal number. Harlan Soft cob bedding (Envigo Tekland 7087, Envigo, Indianapolis, Indiana) was used and changed at least twice/week. Animals were provided with fresh water and rodent chow diet (Teklad 2018, Envigo, Indianapolis, Indiana) ad libitum and housed in a temperature-controlled room (22.2° C.) on a 12-h light-dark cycle throughout the study.
(§2) The study rats were randomized and administered one of seven study articles as noted in Table 4— […]
(§3) Rats were evaluated for arthritis index before injection of a booster dose. […]
(§4) During the in-life period, arthritis severity index, paw thickness, ankle diameter and pain sensitivity were monitored. […]

IL-1β = experiment: CIA rats: serum IL-1β ELISA; assay type: in vivo, Rat; settings: Methotrexate 0.5 mg/kg
From the text: as §1, with “Harlan Soft cob bedding (Envigo Tekland 7087, Envigo, Indianapolis, Indiana) was used and changed at least twice/week. Animals were provided with fresh water and rodent chow diet (Teklad 2018, Envigo, Indianapolis, Indiana) ad libitum and housed in a temperature-controlled room (22.2° C.) on a 12-h light-dark cycle throughout the study.” left out
During the in-life period, arthritis severity index, paw thickness, ankle diameter and pain sensitivity were monitored. […] Urinary cartilage degradation marker (CTX-II), proinflammatory cytokines (TNF-α, IL-1β, and IL-6), cartilage synthesis marker (PIIANP) and matrix degrading proteases (MMP13) were measured. […]
ELISA Assay. The presence of cytokines IL-1β/IL-6/TNF-α was measured using the Rat IL-1β/IL-6/TNF-α Quantikine ELISA kit (R&D Systems, Minneapolis, Minnesota) as follows. […] After the addition of stop solution, the absorbance was read at 450 nm and the concentration of IL-1β/IL-6/TNF-α calculated based on the absorbance readings of an IL-1β/IL-6/TNF-α standard curve.

[2] = test system: collagen-induced arthritis (CIA) model in rats; experiment: CIA rats: pain sensitivity (Randall—Selitto probe); assay type: in vivo, Sprague—Dawley rats; settings: Methotrexate 0.5 mg/kg; range over time points
From the text: as §1, §2, §3, §4

[3] = test system: collagen-induced arthritis (CIA) model in rats; experiment: CIA rats: ankle diameter; assay type: in vivo, Sprague—Dawley rats; settings: days 7 to 21; Methotrexate 0.5 mg/kg
From the text: as §1, §2, §3, §4

PIIANP = experiment: CIA rats: serum PIIANP ELISA; assay type: in vivo, Rat; settings: Methotrexate 0.5 mg/kg
From the text: as §1, with “Harlan Soft cob bedding (Envigo Tekland 7087, Envigo, Indianapolis, Indiana) was used and changed at least twice/week. Animals were provided with fresh water and rodent chow diet (Teklad 2018, Envigo, Indianapolis, Indiana) ad libitum and housed in a temperature-controlled room (22.2° C.) on a 12-h light-dark cycle throughout the study.” left out
During the in-life period, arthritis severity index, paw thickness, ankle diameter and pain sensitivity were monitored. […] Urinary cartilage degradation marker (CTX-II), proinflammatory cytokines (TNF-α, IL-1β, and IL-6), cartilage synthesis marker (PIIANP) and matrix degrading proteases (MMP13) were measured.
ELISA Assay. The presence of PIIANP was measured using the Rat Procollagen Type IIA N-Prop (PIIANP) ELISA kit (MyBiosource, San Diego, California) as follows. […] After the addition of stop solution, the absorbance was read at 450 nm and the concentration of PIIANP calculated based on the absorbance readings of a PIIANP standard curve.

[4] = test system: collagen-induced arthritis (CIA) model in rats; experiment: CIA rats: arthritis severity index; assay type: in vivo, Sprague—Dawley rats; settings: Methotrexate 0.5 mg/kg; vehicle CIA rats day 10
From the text: as §1, §2, §3, §4

CTX-II = experiment: CIA rats: urine CTX-II ELISA; assay type: in vivo, Rat; settings: Methotrexate 0.5 mg/kg
From the text: as §1
During the in-life period, arthritis severity index, paw thickness, ankle diameter and pain sensitivity were monitored. Urine and serum were collected at the end of study for biomarker analysis. […] Urinary cartilage degradation marker (CTX-II), proinflammatory cytokines (TNF-α, IL-1β, and IL-6), cartilage synthesis marker (PIIANP) and matrix degrading proteases (MMP13) were measured.
Assay. Rat urine samples were diluted 1:3 and the presence of CTX-II was measured using the Rat CTX-II ELISA kit from Mybiosource as follows. […] After the addition of stop solution, the absorbance was read at 450 nm, multiplied by dilution factor, and the concentration of CTX-II calculated based on the absorbance readings of a CTX-II standard curve.
Creatine—CTX-II amount was normalized to the amount of Creatinine in the urine using a Creatinine Parameter Assay Kit (R&D Systems) as follows. […] Absorbance was read at 492 nm, and Creatinine amount in urine was calculated based on the absorbance readings of a Creatinine standard curve. […]

[5] = test system: collagen-induced arthritis (CIA) model in rats; experiment: CIA rats: ankle joint histopathology (modified Mankin system); assay type: in vivo, Sprague—Dawley rats; settings: Methotrexate 0.5 mg/kg
From the text: as §1
During the in-life period, arthritis severity index, paw thickness, ankle diameter and pain sensitivity were monitored. Urine and serum were collected at the end of study for biomarker analysis. Necropsy was carried out on day 22 for all the groups post priming. At necropsy, the ankle joint from each rat was collected for histopathology analysis. Urinary cartilage degradation marker (CTX-II), proinflammatory cytokines (TNF-α, IL-1β, and IL-6), cartilage synthesis marker (PIIANP) and matrix degrading proteases (MMP13) were measured.
Procedures and Evaluations. At necropsy, the ankle joint was carefully dissected out, fixed in 10% buffered formalin, and sent to Nationwide Histology (Veradale, WA, USA) for further histopathology analysis. The fixed specimens were then decalcified with Calci-Clear Rapid for one and a half days and embedded in paraffin. Standardized 5 μm serial sections were obtained from each rat and stained with hematoxylin and eosin (HE) and Safranin 0-fast green to enable evaluation of proteoglycan content. A modified Mankin system (Mankin et al., 1981) was used to score structural and cellular alterations of articular components as indications of disease progression and/or treatment efficacy. The histological analysis was conducted by a certified Pathologist at Nationwide Histology.

[6] = test system: potato 5-Lipoxygenase enzyme; experiment: 5-LOX inhibition, Lipoxygenase Inhibitor Screening Assay Kit; assay type: biochemical; settings: at 100 μM
Experimental: Cashew testa extract was tested for 5-LOX inhibition using the Lipoxygenase Inhibitor Screening Assay Kit (available from Cayman Chemical, Ann Arbor, Michigan, US) and potato 5-Lipoxygenase enzyme (available from Cayman Chemical). This kit measures hydroperoxides produced in the lipoxygenation reaction.
The extracts were dissolved in methanol to final working concentrations. 5-LOX enzyme, Chromagen, and Linoleic Acid solutions were prepared immediately before use. Nordihydroguaiaretic acid (‘NDGA’) was used as a positive control. 5-LOX enzyme was added to the test samples and controls and incubated for five minutes at room temperature to allow for enzyme/inhibitor interaction. Linoleic acid substrate was added to the plate to initiate the reaction, and the plate was then shaken at room temperature for 10 minutes. Chromagen was added to visualize the hydroperoxides formed during the reaction and the plate was shaken at room temperature for another five minutes. The absorbance was then read at 492 nm. Percent inhibition of the extract concentration was calculated in comparison to the uninhibited control wells.
Cashew testa extract was tested for its 5-LOX inhibition activity at 10 different concentrations (0.7, 1.5, 3.0, 6.0, 11.9, 15.6, 31.2, 62.5, 125.0 and 250.0 μg/mL).

Row | SMILES | reduction in paw edema, area under the swelling curve [1] [%] | reduction in serum level of IL-1β vs CIA rats treated with vehicle (IL-1β) [%] | pain tolerance vs Vehicle treated CIA [2] | reduction in ankle diameter, area under the curve [3] [%] | increase in serum PIIANP compared to CIA+vehicle (PIIANP) [%] | disease onset, day after priming [4] | urine CTX-II, cartilage protection vs vehicle treated CIA rats (CTX-II; normalized with creatinine) [%] | urine CTX-II, cartilage protection vs vehicle treated CIA rats (CTX-II; normalized with protein) [%] | urine CTX-II, cartilage protection vs vehicle treated CIA rats (CTX-II; raw data) | GAG loss, lower than vehicle [5] [%] | bone erosion, lower than vehicle [5] [%] | cartilage destruction, lower than vehicle [5] [%] | inflammation, lower than vehicle [5] [%] | 5-LOX enzyme inhibition [6] [%]
1 | CN(Cc1cnc2nc(N)nc(N)c2n1)c1ccc(C(=O)N[C@@H](CCC(=O)O)C(=O)O)cc1 [MTX, Methotrexate] | 90.2 | 86.4 | 14.1-67.1% | 89.1 | 41 | 14 | 27.2 | 22.9 | up to 53.8% | 50.7 | 71.2 | 50.7 | 55.8 | 
2 | CC(Cc1ccc(O)c(O)c1)C(C)Cc1ccc(O)c(O)c1 (centres unmarked) [NDGA, Nordihydroguaiaretic acid] |  |  |  |  |  |  |  |  |  |  |  |  |  | 100
